According to patent publication US5081116A, “Cephalosporin derivatives” (Yamanouchi Pharmaceutical Co., Ltd., priority 1989, dated 1992):
In brackets after ≈: the same amount, converted by molar mass. Like-named read-outs stand apart in the source and are kept apart here.

How the values were obtained:
[1] = Absorption rate from the digestive tract (urinary and biliary recovery after oral administration); format: in vivo; conditions: rat, 50 mg/kg, bioassay
Procedure: Further, the absorption rate of the compound of the general formula (I) wherein A is the 1-acetoxyethyl group (Compound of Example 2) from the digestive tract is shown as follows together with the testing method therefor.
An ether-anesthetized rat was fixed with the belly upside and a polyethylene tube was inserted into the bile-duct. The urine was collected from the same rat. After the test compound was orally administered at 50 mg/kg, urine and bile samples were collected within 0-6 hours and also within 6-24 hours. The amounts recovered in the urine and the bile within 24 hours were determined by measuring the test compound concentrations in the urine and the bile by a bioassay method using the standard solution of the test compound prepared with M/15 phosphate buffer.

Escherichia coli 0-1 = assay: Minimum growth inhibition concentration (antimicrobial activity); format: cell-based; conditions: 01
Source text: (§1) The antimicrobial activity of the 7-[2-(2-amino-4-thiazolyl)-2-(hydroxyimino)acetamido]-3-(1,3-dithiolan-2-yl)-3-cephem-4-carboxylic acid which is such that A of the compounds of the general formula is the hydrogen atom (Compound of Example 1) is shown in Table 1.
(§2) (Minimum Growth Inhibition Concentration, γ/ml)

[2] = tested on: Klebsiella pneumoniae ATCC 10031; assay: as above; format: cell-based; conditions: ATCC10031
Source text: as §1, §2

[3] = tested on: Staphylococcus aureus FDA 209P JC-1; assay: as above; format: cell-based; conditions: FDA209P
Source text: as §1, §2

CAY 1104 = assay: as above; format: cell-based; conditions: Enterobacter Faecalis CAY 1104
Source text: as §1, §2

[4] = tested on: Staphylococcus epidermidis IID 866; assay: as above; format: cell-based; conditions: IID866
Source text: as §1, §2

| MIC (Escherichia coli 0-1) [µg/mL] | MIC [2] [µg/mL] | MIC [3] [µg/mL] | MIC (CAY 1104) [µg/mL] | MIC [4] [µg/mL] | Compound | dose excreted at 24 h ([1]; bile, read-out: Recovery Rate (%) within 24 hours In the Bile) [%] | dose excreted at 24 h ([1]; urine, read-out: Recovery Rate (%) within 24 hours In the Urine) [%] | dose excreted at 24 h ([1]; urine and bile, urine + bile, read-out: Recovery Rate (%) within 24 hours Total) [%] |
| --- | --- | --- | --- | --- | --- | --- | --- | --- |
| – | – | – | – | – | CC(=O)OC(C)OC(=O)C1=C(C2SCCS2)CS[C@@H]2C(NC(=O)/C(=N\O)c3csc(N)n3)C(=O)N12 (some centres unmarked) [Example 2, 1-acetoxyethyl (Z)-7-[2-(2-amino-4-thiazolyl)-2-(hydroxyimino)acetamido]-3-(1,3-dithiolan-2-yl)-3-cephem-4-carboxylate] | 8.5 | 14.1 | 22.6 |
| 0.39 (≈ 0.824 µM) | 0.78 (≈ 1.65 µM) | 0.39 (≈ 0.824 µM) | 3.13 (≈ 6.61 µM) | 0.39 (≈ 0.824 µM) | Nc1nc(/C(=N/O)C(=O)NC2C(=O)N3C(C(=O)O)=C(C4SCCS4)CS[C@H]23)cs1 (some centres unmarked) [Example 1, (Z)-7-[2-(2-amino-4-thiazolyl)-2-(hydroxyimino)acetamido]-3-(1,3-dithiolan-2-yl)3-cephem-4-carboxylic acid] | – | – | – |
